According to patent US20240091227A1, “Use Of 2-Phenyl-6-(1H-Imidazol-1-YL) Quinazoline For Treating Neurodegenerative Diseases, Preferably Alzheimer's Disease” (ROTTAPHARM BIOTECH S.R.L., priority 2019, published 2024):
Values joined by “and” are separate entries in the source; they are usually repeats but may differ in a detail not shown here. Equal entries are not always repeated. Where two headings read alike, the source gives them in different places.

Legend:
PKCε = PKCε translocation to the plasma membrane in cultured dorsal root ganglia neurons; assay type: cell-based, rat; conditions: for IC50: rat DRG neurons
Method: FIG. 1 reports the time-course (A) and washout (B) of CR4056 effect on PKCF translocation induced by bradykinin (BK 1 μM). In Panel A, open symbols represent the percentage of neurons positive for PKCF translocation following BK stimulation in absence of the drug. Filled symbols represent neurons pre-incubated with CR4056 ([…]) for different times before the stimulation for 30 seconds with BK+CR4056. The first filled symbol indicates the effect of CR4056 co-incubated for 30 seconds with BK, the second filled symbol indicates 10 seconds of pre-incubation of CR4056, and the last indicates 24 hours of pre-incubation of CR4056. […] In Panel B, BK-induced PKCF translocation was evaluated before (open symbol) and after pre-incubation of CR4056 ([…]) at different time intervals (from 10 minutes to 8 hours) (filled symbols). The first datapoint was obtained at the end of the 10 minute pre-incubation, when CR4056 was still present. The subsequent datapoints were obtained after extensive rinsing to ensure complete removal of the drug from extracellular solution (n=3).
Rat dorsal root ganglia (DRGs) were obtained from freshly isolated spines after carefully removing nerve trunks and connective tissue. Larger ganglia, chopped into 2-4 smaller pieces were then incubated for 1 hour at 37° C. in 0.125% collagenase (Worthington, Freehold, NJ) dissolved in Dulbecco's modified Eagle's medium (DMEM) containing 10% fetal bovine serum (FBS) plus 1% penicillin/streptomycin and 1% L-glutamine (Euroclone, Milan, Italy). After enzymatic digestion, ganglia were mechanically dissociated and neurons plated at a density such that neurons would cover about 30% of coverslip surface in a single layer, in petri dishes containing wells with a glass bottom coverslip (pre-coated with 10 μg/mL poly-L-lysine and 20 µg/ml laminin, Sigma-Aldrich, Milan, Italy). Cells were incubated for 2-3 days in DMEM as described above, plus 1.5 μg/ml cytosine 1-d-arabinofuranoside (ARA-C, Sigma-Aldrich) to slow down proliferation of non neuronal cells, and 100 ng/ml nerve growth factor (NGF, Sigma-Aldrich) to increase cell health and the and the expression of receptors which are linked to PKCF translocation upon stimulation. Activation of membrane receptors coupled to phospholipase C pathway leads to PKCF translocation from cytoplasm to the plasma membrane. In order to study PKCε behaviour a well established technique was employed (Vellani V, Neuroscience, 2006). […] CR4056 was pre-applied in the culture medium for 10 min or co-applied with the stimulus. After fixation, cells were permeabilized with 0.2% Triton X-100 (Sigma-Aldrich, Milan, Italy) and exposed overnight to a rabbit polyclonal antibody highly specific for PKCF. After extensive rinsing, PKCF was visualized with a secondary antibody (1:200 dilution Alexa Fluor 488 goat anti-rabbit, Thermo Fisher Scientific, Monza, Italy) applied for 2-4 hours at room temperature in the dark Cells showing PKCF translocation were detected with a confocal microscope (Leica SP2, Leica, Switzerland) by measuring fluorescence intensity along a line drawn through the cytoplasm and the membrane, thus avoiding the nucleus. Neurons in which fluorescence intensity at the plasma membrane throughout the cell was 1.5-fold or higher than the mean cytoplasmic intensity were considered positive.

[1] = Brain penetration: plasma and brain levels by LC/MS/MS after oral administration; assay type: in vivo, rat; conditions: 30 mg/kg PO, fasted; for concentration at 1 h / Kp at 1 h: male, Sprague Dawley, rat, po, 30 mg/kg; for Kp at 1 h: brain/plasma
Method: CR 4056 was determined in rat plasma and in rat brain and plasma using a LC/MS/MS method. Male Sprague Dawley rats, Harlan, were treated orally with a CR 4056 suspension (Methocel 0.5%) at the dose of 30 mg/kg. Oral administration was performed by gastric gavage to 3 animals per group (5 ml/kg). The compound was detected in plasma and in brain 1 hour after the treatment.
Each rat brain was weighted and cut in half. Each cerebral hemisphere was weighted and homogenized with two different methodologies. One was liquidization by Ultra turrax tube drive (IKA), adding an aliquot of buffer solution (10 mM ammonium formate pH 3.5) three times the weight of the hemisphere. Then 30 μl of the extract solution were added to 0.25 ml of methanol in a 1.5 ml eppendorf tube, vortex-mixed and centrifugated for 5 min at 13500 rpm at 4° C. the supernatant was transferred to a 96-deep well plates 2 mL round (Axygen) and injected into the LC/MS/MS system. The second one was cryogenic grinding with Mikro Dismembrator (Sartorius). Each cerebral hemisphere was weighted, put in a 20 mL teflon vessel with a steel sphere (7.85 g/ml dia 10 mm) and frozen by immersion in liquid nitrogen for 5 minutes. The deep frozen brain was ground with Mikro Dismembrator at 2500 rpm for 30 sec, the freezing/grinding cycle was repeated twice. A portion of powder was accurately weighted (ca. 10 mg) in a 1.5 ml eppendorf tube, 0.25 ml of methanol were then added. After vortex-mixing and centrifugation for 5 min at 13500 rpm at 4° C., the supernatant was placed in a 96-deep well plates 2 mL round (Axygen) and injected into the LC/MS/MS system. Both methods used for homogenization gave similar results showing that the extraction efficiency was similar for both methods.
Individual plasma and brain levels and brain plasma ratio after oral administration (30 mg/kg) of CR 4056 suspension to male Sprague Dawley rats in fasted conditions (rats were scarified 60 minutes after the PO administration) are shown in the following table.

[2] = 10 μM, 10 minute application, then washout
[3] = individual male Sprague Dawley rats, 1 h

Brain/plasma ratio [1, 3]: 12.4 and 11.4
Mean Brain Concentration [1, 3]: 35492 ng/g and 27745 ng/g
Plasmatic Concentration [1, 3]: 2860 ng/mL and 2430 ng/mL
concentration at 1 h ([1]; brain, individual male Sprague Dawley rats, read-out: Mean Brain Concentration): 33600 ng/g
concentration at 1 h ([1]; brain, male Sprague Dawley rats, read-out: Mean Brain Concentration, mean of 3 rats): 32300 ng/g
Kp at 1 h ([1]; individual male Sprague Dawley rats, read-out: Brain/plasma ratio): 11.7
Kp at 1 h ([1]; male Sprague Dawley rats, read-out: Brain/plasma ratio, mean of 3 rats): 11.8
concentration at 1 h ([1]; plasma, individual male Sprague Dawley rats, read-out: Plasmatic Concentration): 2860 ng/mL
concentration at 1 h ([1]; plasma, male Sprague Dawley rats, read-out: Plasmatic Concentration, mean of 3 rats): 2720 ng/mL
Compound: c1ccc(-c2ncc3cc(-n4ccnc4)ccc3n2)cc1 [CR4056, 2-phenyl-6-(1H-imidazol-1-yl)quinazoline]
Time after washout during which the effect remained unchanged (PKCε; [2]): up to 1 hour
Time after washout to complete reversal of the effect (PKCε; [2]): 3 to 4 h
Influence of preincubation time on inhibition of PKCF translocation (PKCε; 10 μM, preincubation prolonged up to 24 hours or reduced to 10 seconds): did not change the extent of the effect
Effect on BK-induced PKCF translocation, time-course (FIG. 1A) (PKCε; CR4056 10 M, co-incubation 30 seconds to 24 hours pre-incubation, BK 1 μM, t-test p<0.05, n=6): highly significant at all times
Concentration at which the dose-response curves approached saturation (PKCε; CR4056 applied for 10 minutes): about 10 μM
IC50 (PKCε; bradykinin stimulus, read-out: IC50, inhibition of PKCF translocation obtained with BK): 200 nM
IC50 (PKCε; prokineticin 2 stimulus, read-out: IC50, inhibition of PKCF translocation obtained with PK2): 170 nM
